Measurements published in the NIST ThermoML archive (doi:10.1021/je301095j).

Assay: xn = mol fraction of the nth substance listed
Settings: 101 kPa, Liquid; for kinematic viscosity: Capillary tube (Ostwald / Ubbelohde) method; for mass density: Vibrating tube method

COCCOC [1,2-dimethoxyethane] + CCCCCCCCO
Settings | kinematic viscosity [m2/s] | mass density [kg/m3]
283.15 K, x1 = 0.06697 | 1.152e-05 | 833.91
283.15 K, x1 = 0.1224 | 8.912e-06 | 835.41
283.15 K, x1 = 0.2171 | 5.951e-06 | 838.23
283.15 K, x1 = 0.3108 | 4.177e-06 | 841.31
283.15 K, x1 = 0.4036 | 3.014e-06 | 844.65
283.15 K, x1 = 0.5046 | 2.16e-06 | 848.72
283.15 K, x1 = 0.593 | 1.65e-06 | 852.66
283.15 K, x1 = 0.6949 | 1.225e-06 | 857.74
283.15 K, x1 = 0.7907 | 9.43e-07 | 863.1
283.15 K, x1 = 0.8983 | 7.18e-07 | 870.05
283.15 K, x1 = 0.9329 | 6.62e-07 | 872.53
293.15 K, x1 = 0.06547 | 8.238e-06 | 826.71
293.15 K, x1 = 0.1085 | 6.898e-06 | 827.8
293.15 K, x1 = 0.208 | 4.672e-06 | 830.48
293.15 K, x1 = 0.3098 | 3.277e-06 | 833.51
293.15 K, x1 = 0.4069 | 2.39e-06 | 836.71
293.15 K, x1 = 0.5036 | 1.79e-06 | 840.25
293.15 K, x1 = 0.5981 | 1.37e-06 | 844.1
293.15 K, x1 = 0.6905 | 1.07e-06 | 848.29
293.15 K, x1 = 0.7963 | 8.12e-07 | 853.72
293.15 K, x1 = 0.896 | 6.42e-07 | 859.6
293.15 K, x1 = 0.9434 | 5.8e-07 | 862.69
303.15 K, x1 = 0.05281 | 6.333e-06 | 819.29
303.15 K, x1 = 0.2029 | 3.707e-06 | 822.86
303.15 K, x1 = 0.2197 | 3.499e-06 | 823.3
303.15 K, x1 = 0.299 | 2.72e-06 | 825.44
303.15 K, x1 = 0.3826 | 2.122e-06 | 827.89
303.15 K, x1 = 0.4984 | 1.531e-06 | 831.64
303.15 K, x1 = 0.6107 | 1.14e-06 | 835.78
303.15 K, x1 = 0.6969 | 9.2e-07 | 839.34
303.15 K, x1 = 0.8038 | 7.15e-07 | 844.34
303.15 K, x1 = 0.892 | 5.86e-07 | 849.04
303.15 K, x1 = 0.935 | 5.35e-07 | 851.56
313.15 K, x1 = 0.05472 | 4.688e-06 | 812.24
313.15 K, x1 = 0.1071 | 3.922e-06 | 813.31
313.15 K, x1 = 0.2145 | 2.8e-06 | 815.67
313.15 K, x1 = 0.2882 | 2.251e-06 | 817.43
313.15 K, x1 = 0.4028 | 1.643e-06 | 820.44
313.15 K, x1 = 0.5028 | 1.27e-06 | 823.38
313.15 K, x1 = 0.5955 | 1.008e-06 | 826.4
313.15 K, x1 = 0.6897 | 8.07e-07 | 829.8
313.15 K, x1 = 0.7898 | 6.45e-07 | 833.92
313.15 K, x1 = 0.8945 | 5.16e-07 | 838.85
313.15 K, x1 = 0.9681 | 4.44e-07 | 842.83

COCCOC [1,2-dimethoxyethane] + CCCCCO
Settings | kinematic viscosity [m2/s] | mass density [kg/m3]
283.15 K, x1 = 0.04484 | 5.31e-06 | 824.28
283.15 K, x1 = 0.07064 | – | 825.63
283.15 K, x1 = 0.1021 | 4.09e-06 | 827.27
283.15 K, x1 = 0.2104 | 2.73e-06 | 833.01
283.15 K, x1 = 0.3077 | 2.01e-06 | 838.24
283.15 K, x1 = 0.4078 | 1.54e-06 | 843.7
283.15 K, x1 = 0.4902 | 1.27e-06 | 848.25
283.15 K, x1 = 0.5751 | – | 853
283.15 K, x1 = 0.712 | 8.27e-07 | 860.78
283.15 K, x1 = 0.7978 | 7.25e-07 | 865.75
283.15 K, x1 = 0.8137 | – | 866.69
283.15 K, x1 = 0.8957 | 6.35e-07 | 871.5
283.15 K, x1 = 0.9347 | – | 873.81
283.15 K, x1 = 0.9473 | 5.96e-07 | 874.57
293.15 K, x1 = 0.04837 | 3.98e-06 | 816.95
293.15 K, x1 = 0.07064 | – | 818.04
293.15 K, x1 = 0.09244 | 3.32e-06 | 819.11
293.15 K, x1 = 0.1962 | – | 824.24
293.15 K, x1 = 0.2048 | 2.24e-06 | 824.66
293.15 K, x1 = 0.3078 | 1.65e-06 | 829.83
293.15 K, x1 = 0.408 | 1.28e-06 | 834.94
293.15 K, x1 = 0.497 | 1.05e-06 | 839.55
293.15 K, x1 = 0.595 | 8.65e-07 | 844.67
293.15 K, x1 = 0.6985 | 7.25e-07 | 850.18
293.15 K, x1 = 0.7088 | – | 850.73
293.15 K, x1 = 0.7978 | 6.17e-07 | 855.54
293.15 K, x1 = 0.8137 | – | 856.41
293.15 K, x1 = 0.896 | 5.4e-07 | 860.92
293.15 K, x1 = 0.9071 | – | 861.54
293.15 K, x1 = 0.9541 | 5.01e-07 | 864.14
303.15 K, x1 = 0.04441 | 3.14e-06 | 809.26
303.15 K, x1 = 0.1118 | 2.45e-06 | 812.32
303.15 K, x1 = 0.1947 | 1.89e-06 | 816.15
303.15 K, x1 = 0.3088 | 1.39e-06 | 821.48
303.15 K, x1 = 0.4056 | 1.11e-06 | 826.06
303.15 K, x1 = 0.4948 | 9.29e-07 | 830.35
303.15 K, x1 = 0.6215 | – | 836.52
303.15 K, x1 = 0.7076 | 6.5e-07 | 840.79
303.15 K, x1 = 0.8038 | 5.69e-07 | 845.62
303.15 K, x1 = 0.8519 | – | 848.06
303.15 K, x1 = 0.8998 | 5.08e-07 | 850.52
303.15 K, x1 = 0.9524 | 4.8e-07 | 853.23
313.15 K, x1 = 0.06014 | 2.34e-06 | 802.42
313.15 K, x1 = 0.0969 | 2.08e-06 | 803.97
313.15 K, x1 = 0.1159 | – | 804.76
313.15 K, x1 = 0.2221 | – | 809.31
313.15 K, x1 = 0.3249 | 1.13e-06 | 813.76
313.15 K, x1 = 0.4049 | 9.58e-07 | 817.27
313.15 K, x1 = 0.4955 | 8.09e-07 | 821.28
313.15 K, x1 = 0.599 | 6.82e-07 | 825.94
313.15 K, x1 = 0.7001 | 5.86e-07 | 830.56
313.15 K, x1 = 0.801 | 5.16e-07 | 835.25
313.15 K, x1 = 0.9031 | 4.59e-07 | 840.05
313.15 K, x1 = 0.9604 | 4.34e-07 | 842.78

COCCOC [1,2-dimethoxyethane] + CCO
Settings | kinematic viscosity [m2/s] | mass density [kg/m3]
283.15 K, x1 = 0.05379 | 1.552e-06 | 805.91
283.15 K, x1 = 0.09719 | 1.381e-06 | 811.83
283.15 K, x1 = 0.2113 | 1.08e-06 | 825.56
283.15 K, x1 = 0.2968 | 9.35e-07 | 834.32
283.15 K, x1 = 0.4056 | 8.09e-07 | 843.94
283.15 K, x1 = 0.4865 | 7.45e-07 | 850.18
283.15 K, x1 = 0.5971 | 6.82e-07 | 857.71
283.15 K, x1 = 0.6948 | 6.38e-07 | 863.49
283.15 K, x1 = 0.8257 | 5.98e-07 | 870.24
283.15 K, x1 = 0.8749 | 5.83e-07 | 872.52
283.15 K, x1 = 0.9456 | 5.71e-07 | 875.57
293.15 K, x1 = 0.05746 | 1.304e-06 | 797.66
293.15 K, x1 = 0.09986 | 1.17e-06 | 803.22
293.15 K, x1 = 0.1453 | 1.07e-06 | 808.77
293.15 K, x1 = 0.2138 | 9.37e-07 | 816.42
293.15 K, x1 = 0.2947 | 8.24e-07 | 824.42
293.15 K, x1 = 0.399 | 7.25e-07 | 833.43
293.15 K, x1 = 0.4877 | 6.64e-07 | 840.1
293.15 K, x1 = 0.5965 | 6.09e-07 | 847.24
293.15 K, x1 = 0.6885 | 5.75e-07 | 852.56
293.15 K, x1 = 0.8249 | 5.39e-07 | 859.38
293.15 K, x1 = 0.8772 | 5.26e-07 | 861.72
293.15 K, x1 = 0.9542 | 5.13e-07 | 864.93
303.15 K, x1 = 0.04309 | 1.14e-06 | 786.92
303.15 K, x1 = 0.1038 | 9.89e-07 | 794.71
303.15 K, x1 = 0.2082 | 8.13e-07 | 806.41
303.15 K, x1 = 0.2955 | 7.17e-07 | 814.8
303.15 K, x1 = 0.3926 | 6.39e-07 | 822.94
303.15 K, x1 = 0.497 | 5.82e-07 | 830.54
303.15 K, x1 = 0.5918 | 5.43e-07 | 836.55
303.15 K, x1 = 0.6991 | 5.1e-07 | 842.5
303.15 K, x1 = 0.8103 | 4.86e-07 | 847.89
303.15 K, x1 = 0.8876 | 4.73e-07 | 851.26
303.15 K, x1 = 0.9199 | 4.68e-07 | 852.57
313.15 K, x1 = 0.04639 | 9.59e-07 | 778.57
313.15 K, x1 = 0.1049 | 8.49e-07 | 785.84
313.15 K, x1 = 0.211 | 7.05e-07 | 797.27
313.15 K, x1 = 0.2977 | 6.27e-07 | 805.28
313.15 K, x1 = 0.3787 | 5.75e-07 | 811.92
313.15 K, x1 = 0.4959 | 5.21e-07 | 820.25
313.15 K, x1 = 0.6512 | 4.7e-07 | 829.41
313.15 K, x1 = 0.6979 | 4.62e-07 | 831.83
313.15 K, x1 = 0.8168 | 4.39e-07 | 837.35
313.15 K, x1 = 0.8803 | 4.32e-07 | 840.03
313.15 K, x1 = 0.9384 | 4.23e-07 | 842.37
